Laboratory results published in ChEMBL document CHEMBL1165990, “Semi-synthetic analogues of thiostrepton delimit the critical nature of tail region modifications in the control of protein biosynthesis and antibacterial activity” (Bioorg Med Chem, 2010).
Activity calls are given as the source filed them. The rule behind the calls is not given here.

Experiments:
Escherichia coli [1] = assay: Antibacterial activity against Escherichia coli assessed as inhibition of protein synthesis at 0.1 to 0.4 uM after 60 mins by luminescence assay; type: functional, organism-based
Escherichia coli [2] = assay: Antibacterial activity against Escherichia coli by NCCLS method; type: functional
Escherichia coli [3] = assay: Antibacterial activity against Escherichia coli assessed as inhibition of protein synthesis after 60 mins by luminescence assay; type: functional, organism-based
Staphylococcus aureus [4] = assay: Antibacterial activity against Staphylococcus aureus ATCC 6338 by NCCLS method; type: functional
[5] = Aqueous solubility of the compound; type: physicochemical; conditions: buffer
Bacillus subtilis [6] = assay: Antibacterial activity against Bacillus subtilis ATCC 6633 by NCCLS method; type: functional
Staphylococcus aureus [7] = assay: Antibacterial activity against Staphylococcus aureus ATCC 6338 by disk diffusion assay; type: functional
Bacillus subtilis [8] = assay: Antibacterial activity against Bacillus subtilis ATCC 6633 by disk diffusion assay; type: functional
Escherichia coli [9] = assay: Antibacterial activity against Escherichia coli by disk diffusion assay; type: functional
Escherichia coli [10] = assay: Antibacterial activity against Escherichia coli assessed as inhibition of protein synthesis at 0.01 to 0.96 uM after 60 mins by luminescence assay; type: functional, organism-based

SMILES	inhibition (Escherichia coli [1])	MIC (Escherichia coli [2]) [µg/mL]	MIC (Staphylococcus aureus [4]) [µg/mL]	MIC (Bacillus subtilis [6]) [µg/mL]	other results
C=C(NC(=O)c1csc(C2=N[C@@H]3c4csc(n4)[C@H]4NC(=O)c5csc(n5)[C@H]([C@](C)(O)[C@H](C)O)NC(=O)[C@H]5CSC(=N5)/C(=C/C)NC(=O)[C@H]([C@@H](C)O)NC(=O)c5csc(n5)[C@]3(CC2)NC(=O)[C@H](C)NC(=O)C(=C)NC(=O)[C@H](C)NC(=O)[C@H]([C@@H](C)CC)N[C@@H]2C=Cc3c([C@H](C)O)cc(nc3[C@H]2O)C(=O)O[C@@H]4C)n1)C(=O)NC(CSCCS(=O)(=O)O)C(N)=O (stereo partly drawn)	Active	≥ 128	≤ 2	≤ 8	inhibition (Escherichia coli [3]): Dose-dependent effect; solubility [5]: Soluble
C=C(NC(=O)c1csc(C2=N[C@@H]3c4csc(n4)[C@H]4NC(=O)c5csc(n5)[C@H]([C@](C)(O)[C@H](C)O)NC(=O)[C@H]5CSC(=N5)/C(=C/C)NC(=O)[C@H]([C@@H](C)O)NC(=O)c5csc(n5)[C@]3(CC2)NC(=O)[C@H](C)NC(=O)C(=C)NC(=O)[C@H](C)NC(=O)[C@H]([C@@H](C)CC)N[C@@H]2C=Cc3c([C@H](C)O)cc(nc3[C@H]2O)C(=O)O[C@@H]4C)n1)C(=O)NC(CSC[C@@H](C)C(=O)N1CCC[C@H]1C(=O)O)C(N)=O (stereo in doubt; 4) [listing 1 of 2 here]	Active				
C=C(NC(=O)c1csc(C2=N[C@@H]3c4csc(n4)[C@H]4NC(=O)c5csc(n5)[C@H]([C@](C)(O)[C@H](C)O)NC(=O)[C@H]5CSC(=N5)/C(=C/C)NC(=O)[C@H]([C@@H](C)O)NC(=O)c5csc(n5)[C@]3(CC2)NC(=O)[C@H](C)NC(=O)C(=C)NC(=O)[C@H](C)NC(=O)[C@H]([C@@H](C)CC)N[C@@H]2C=Cc3c([C@H](C)O)cc(nc3[C@H]2O)C(=O)O[C@@H]4C)n1)C(=O)NC(CS[C@@H]1O[C@H](CO)[C@@H](O)[C@H](O)[C@H]1O)C(N)=O (stereo partly drawn)					MIC (Staphylococcus aureus [7]): ≥ 50 µg/mL; MIC (Bacillus subtilis [8]): ≥ 50 µg/mL; MIC (Escherichia coli [9]): ≥ 50 µg/mL
C=C(NC(=O)C(=C)NC(=O)c1csc(C2=N[C@@H]3c4csc(n4)[C@H]4NC(=O)c5csc(n5)[C@H]([C@](C)(O)[C@@H](C)O)NC(=O)[C@H]5CSC(=N5)/C(=C/C)NC(=O)[C@H]([C@@H](C)O)NC(=O)c5csc(n5)[C@]3(CC2)NC(=O)[C@H](C)NC(=O)C(=C)NC(=O)[C@H](C)NC(=O)[C@H]([C@@H](C)CC)N[C@@H]2C=Cc3c([C@H](C)O)cc(nc3[C@H]2O)C(=O)O[C@@H]4C)n1)C(N)=O [THIOSTREPTON]		≥ 32	≤ 0.0625	≤ 0.25	inhibition (Escherichia coli [10]): Active
C=C(NC(=O)c1csc(C2=N[C@@H]3c4csc(n4)[C@H]4NC(=O)c5csc(n5)[C@H]([C@](C)(O)[C@H](C)O)NC(=O)[C@H]5CSC(=N5)/C(=C/C)NC(=O)[C@H]([C@@H](C)O)NC(=O)c5csc(n5)[C@]3(CC2)NC(=O)[C@H](C)NC(=O)C(=C)NC(=O)[C@H](C)NC(=O)[C@H]([C@@H](C)CC)N[C@@H]2C=Cc3c([C@H](C)O)cc(nc3[C@H]2O)C(=O)O[C@@H]4C)n1)C(=O)NC(CSC[C@@H](C)C(=O)N1CCC[C@H]1C(=O)O)C(N)=O (stereo in doubt; 3)	Active				
C=C(NC(=O)c1csc(C2=N[C@@H]3c4csc(n4)[C@H]4NC(=O)c5csc(n5)[C@H]([C@](C)(O)[C@H](C)O)NC(=O)[C@H]5CSC(=N5)/C(=C/C)NC(=O)[C@H]([C@@H](C)O)NC(=O)c5csc(n5)[C@]3(CC2)NC(=O)[C@H](C)NC(=O)C(=C)NC(=O)[C@H](C)NC(=O)[C@H]([C@@H](C)CC)N[C@@H]2C=Cc3c([C@H](C)O)cc(nc3[C@H]2O)C(=O)O[C@@H]4C)n1)C(=O)NC(CSC[C@@H](C)C(=O)N1CCC[C@H]1C(=O)O)C(N)=O (stereo in doubt; 4) [listing 2 of 2 here]		≥ 128	≤ 32	≤ 32	
